Measured values published in patent US4416884A, “Piperazinylbenzoheterocyclic compounds” (Otsuka Pharmaceutical Co., Ltd., priority 1978, dated 1983).
In brackets after ≈: the same amount, converted by molar mass. Where a name gives a salt, the structure may show the parent alone. Read-outs that look alike come from different tables or passages of the source.

How the values were obtained:
Assay in all cases: antimicrobial activity, serial dilution method on agar plate
Type in all cases: cell-based
[1] = tested on: Escherichia Coli NIHJ JC-2 (IFO 12734); settings: for MIC: Escherichia coli, read-out: Minimum Inhibitory Concentration
Description: (§1) The antimicrobial activity of the following test compounds on various test organisms listed below was determined by the serial dilution method on agar plate (Heart Infusion agar produced by Difco Co.) (see CHEMOTHERAPY 22, pp. 1126-1128 (1974)), and the minimum inhibitory concentrations (mcg/ml) obtained are shown in Table 1 below.
(§2) A sample of each test organism was prepared so that the population of the organism was 1×10^8 cells/ml (O.D. 660 mμ=0.07 to 0.16) and 1×10^6 cells/ml (which was obtained by diluting the above 1×10^8 cells/ml preparation).

[2] = tested on: Streptococcus pyogenes IID S-23
Description: as §1, §2

[3] = tested on: Salmonella typhi 0-901 (NCTC 8393); settings: Salmonella enterica
Description: as §1, §2

[4] = tested on: Staphylococcus aureus FDA 209 P
Description: as §1, §2

[5] = tested on: Serattia marcescens IFO 12648
Description: as §1, §2

[6] = tested on: Pseudomonas aeruginosa ATCC 10145
Description: as §1, §2

[7] = tested on: Klebsiella pneumoniae
Description: as §1, §2

[8] = tested on: Pseudomonas aeruginosa NCTC 10490
Description: as §1, §2

[9] = tested on: Proteus rettgeri NIH 96; settings: Providencia rettgeri
Description: as §1, §2

[10] = tested on: Pseudomonas aeruginosa E-2
Description: as §1, §2

[11] = tested on: Shigella Sonnei EW 33; settings: read-out: Minimum Inhibitory Concentration
Description: as §1, §2

[12] = IIDS23, read-out: Minimum Inhibitory Concentration, inoculum 1 × 10^6 cells/ml
[13] = IIDS23, read-out: Minimum Inhibitory Concentration, inoculum 1 × 10^8 cells/ml
[14] = inoculum 1 × 10^6 cells/ml, read-out: Minimum Inhibitory Concentration
[15] = inoculum 1 × 10^8 cells/ml, read-out: Minimum Inhibitory Concentration
[16] = FDA209, read-out: Minimum Inhibitory Concentration, inoculum 1 × 10^6 cells/ml
[17] = FDA209, read-out: Minimum Inhibitory Concentration, inoculum 1 × 10^8 cells/ml
[18] = read-out: Minimum Inhibitory Concentration, inoculum 1 × 10^6 cells/ml
[19] = read-out: Minimum Inhibitory Concentration, inoculum 1 × 10^8 cells/ml
[20] = ATCC10145, read-out: Minimum Inhibitory Concentration, inoculum 1 × 10^6 cells/ml
[21] = ATCC10145, read-out: Minimum Inhibitory Concentration, inoculum 1 × 10^8 cells/ml
[22] = NCTC10490, read-out: Minimum Inhibitory Concentration, inoculum 1 × 10^6 cells/ml
[23] = NCTC10490, read-out: Minimum Inhibitory Concentration, inoculum 1 × 10^8 cells/ml
[24] = NIH96, read-out: Minimum Inhibitory Concentration, inoculum 1 × 10^6 cells/ml
[25] = NIH96, read-out: Minimum Inhibitory Concentration, inoculum 1 × 10^8 cells/ml
[26] = E2, read-out: Minimum Inhibitory Concentration, inoculum 1 × 10^6 cells/ml
[27] = E2, read-out: Minimum Inhibitory Concentration, inoculum 1 × 10^8 cells/ml
[28] = IIDS23, inoculum 1 × 10^8 cells/ml, read-out: Minimum Inhibitory Concentration
[29] = FDA209, inoculum 1 × 10^8 cells/ml, read-out: Minimum Inhibitory Concentration
[30] = ATCC10145, inoculum 1 × 10^8 cells/ml, read-out: Minimum Inhibitory Concentration
[31] = NCTC10490, inoculum 1 × 10^8 cells/ml, read-out: Minimum Inhibitory Concentration
[32] = NIH96, inoculum 1 × 10^8 cells/ml, read-out: Minimum Inhibitory Concentration
[33] = E2, inoculum 1 × 10^8 cells/ml, read-out: Minimum Inhibitory Concentration

Structure (SMILES)	MIC [1] [µg/mL]	MIC [2, 13] [µg/mL]	MIC [3, 15] [µg/mL]	MIC [4, 17] [µg/mL]	MIC [5, 19] [µg/mL]	MIC [6, 21] [µg/mL]	MIC [7, 19] [µg/mL]	MIC [8, 23] [µg/mL]	MIC [9, 25] [µg/mL]	MIC [10, 27] [µg/mL]	MIC ([11]; inoculum 1 × 10^6 cells/ml) [µg/mL]	MIC ([11]; inoculum 1 × 10^8 cells/ml) [µg/mL]	MIC ([1]; inoculum 1 × 10^8 cells/ml) [µg/mL]	MIC [3, 19] [µg/mL]	MIC [4, 29] [µg/mL]	MIC [5, 15] [µg/mL]	MIC [6, 30] [µg/mL]	MIC [7, 15] [µg/mL]	MIC [8, 31] [µg/mL]	MIC [9, 32] [µg/mL]	also measured
CC1CCc2c(N3CCNCC3)c(Cl)cc3c(=O)c(C(=O)O)cn1c23 (stereo not drawn) [Compound T, 8-(1-Piperazinyl)-9-chloro-5-methyl-6,7-dihydro-1-oxo-1H,5H--benzo[ij]quinolizine-2-carboxylic acid hydrochloride hydrate]	0.4	6.3	0.2	1.6	1.6	3.1	0.4	1.6	0.2	3.1	0.2	0.2	–	–	–	–	–	–	–	–	Minimum Inhibitory Concentration ([1]; inoculum 1 × 10^6 cells/ml): 0.4 µg/mL; MIC [2, 12]: 3.1 µg/mL; MIC [3, 14]: 0.1 µg/mL; MIC [4, 16]: 1.6 µg/mL; MIC [5, 18]: 1.6 µg/mL; MIC [6, 20]: 1.6 µg/mL; MIC [7, 18]: 0.4 µg/mL; MIC [8, 22]: 1.6 µg/mL; MIC [9, 24]: 0.2 µg/mL; MIC [10, 26]: 3.1 µg/mL
CC1CCc2c(N3CCNCC3)c(F)cc3c(=O)c(C(=O)O)cn1c23 (stereo not drawn) [Compound X, 8-(1-Piperazinyl)-9-fluoro-5-methyl-6,7-dihydro-1-oxo-1H,5H--benzo[ij]quinolizine-2-carboxylic acid hydrobromide]	0.4	3.1	0.1	0.8	0.8	1.6	0.4	1.6	0.1	1.6	–	0.2	–	–	–	–	–	–	–	–	–
CC1Cc2c(N3CCNCC3)c(Cl)cc3c(=O)c(C(=O)O)cn1c23 (stereo not drawn) [Compound Y, 8-Chloro-9-(1-piperazinyl)-2-methyl-6-oxo-1,2-dihydro-6H--pyrrolo[3,2,1-ij]-quinoline-5-carboxylic acid]	0.2 (≈ 0.575 µM)	12.5 (≈ 35.9 µM)	0.1 (≈ 0.288 µM)	3.1 (≈ 8.91 µM)	0.8 (≈ 2.3 µM)	1.6 (≈ 4.6 µM)	0.4 (≈ 1.15 µM)	1.6 (≈ 4.6 µM)	0.2 (≈ 0.575 µM)	3.1 (≈ 8.91 µM)	≤ 0.05	0.1 (≈ 0.288 µM)	–	–	–	–	–	–	–	–	Minimum Inhibitory Concentration ([1]; inoculum 1 × 10^6 cells/ml): 0.2 µg/mL; MIC [2, 12]: 6.3 µg/mL (≈ 18.1 µM); MIC [3, 14]: ≤ 0.05 µg/mL; MIC [4, 16]: 3.1 µg/mL (≈ 8.91 µM); MIC [5, 18]: 0.4 µg/mL (≈ 1.15 µM); MIC [6, 20]: 1.6 µg/mL (≈ 4.6 µM); MIC [7, 18]: 0.2 µg/mL (≈ 0.575 µM); MIC [8, 22]: 1.6 µg/mL (≈ 4.6 µM); MIC [9, 24]: 0.1 µg/mL (≈ 0.288 µM); MIC [10, 26]: 3.1 µg/mL (≈ 8.91 µM)
C=CCN1CCN(c2c(Cl)cc3c(=O)c(C(=O)O)cn4c3c2CCC4C)CC1 (stereo not drawn) [h]	–	–	–	–	–	–	–	–	–	–	–	1.56 (≈ 3.88 µM)	0.78 (≈ 1.94 µM)	0.78 (≈ 1.94 µM)	0.78 (≈ 1.94 µM)	0.78 (≈ 1.94 µM)	12.5 (≈ 31.1 µM)	0.78 (≈ 1.94 µM)	12.5 (≈ 31.1 µM)	0.2 (≈ 0.498 µM)	MIC [2, 28]: 3.13 µg/mL (≈ 7.79 µM); MIC [10, 33]: 12.5 µg/mL (≈ 31.1 µM)
CC1CCc2c(N3CCN(CC(F)(F)F)CC3)c(Cl)cc3c(=O)c(C(=O)O)cn1c23 (stereo not drawn) [c]	–	1.56 (≈ 3.51 µM)	–	–	–	–	–	–	–	–	–	1.56 (≈ 3.51 µM)	0.39 (≈ 0.879 µM)	0.2 (≈ 0.451 µM)	0.1 (≈ 0.225 µM)	0.39 (≈ 0.879 µM)	3.13 (≈ 7.05 µM)	0.39 (≈ 0.879 µM)	0.78 (≈ 1.76 µM)	0.39 (≈ 0.879 µM)	MIC [10, 33]: 6.25 µg/mL (≈ 14.1 µM)
CC1CCc2c(N3CCN(C)CC3)c(Cl)cc3c(=O)c(C(=O)O)cn1c23 (stereo not drawn) [Compound U, 8-(4-Methyl-1-piperazinyl)-9-chloro-5-methyl-6,7-dihydro-1-oxo-1H,5H--benzo[ij]-quinolizine-2-carboxylic acid]	–	–	–	–	–	–	–	–	–	–	0.1 (≈ 0.266 µM)	0.2 (≈ 0.532 µM)	0.2 (≈ 0.532 µM)	≤ 0.05	0.8 (≈ 2.13 µM)	0.4 (≈ 1.06 µM)	3.1 (≈ 8.25 µM)	0.2 (≈ 0.532 µM)	1.6 (≈ 4.26 µM)	0.4 (≈ 1.06 µM)	MIC ([1]; inoculum 1 × 10^6 cells/ml): 0.2 µg/mL (≈ 0.532 µM); MIC ([2]; IIDS23, inoculum 1 × 10^6 cells/ml, read-out: Minimum Inhibitory Concentration): 3.1 µg/mL (≈ 8.25 µM); MIC [2, 28]: 3.1 µg/mL (≈ 8.25 µM); MIC [3, 18]: ≤ 0.05 µg/mL; MIC ([4]; FDA209, inoculum 1 × 10^6 cells/ml, read-out: Minimum Inhibitory Concentration): 0.4 µg/mL (≈ 1.06 µM); MIC [5, 14]: 0.4 µg/mL (≈ 1.06 µM); MIC ([6]; ATCC10145, inoculum 1 × 10^6 cells/ml, read-out: Minimum Inhibitory Concentration): 3.1 µg/mL (≈ 8.25 µM); MIC [7, 14]: 0.2 µg/mL (≈ 0.532 µM); MIC ([8]; NCTC10490, inoculum 1 × 10^6 cells/ml, read-out: Minimum Inhibitory Concentration): 1.6 µg/mL (≈ 4.26 µM); MIC ([9]; NIH96, inoculum 1 × 10^6 cells/ml, read-out: Minimum Inhibitory Concentration): 0.4 µg/mL (≈ 1.06 µM); MIC ([10]; E2, inoculum 1 × 10^6 cells/ml, read-out: Minimum Inhibitory Concentration): 6.3 µg/mL (≈ 16.8 µM); MIC [10, 33]: 6.3 µg/mL (≈ 16.8 µM)
